ChEMBL document CHEMBL1201862, “PubChem BioAssay data set” (2004)
The source made the active and inactive calls.

How the values were obtained:
[1] = target: T1, Mannose-6-phosphate isomerase (Homo sapiens, UniProt P34949); test: human PMI inhibitors, high substrate, primary screen, biochemical, fluorescence intensity, high mannose 6-phosphate (AID 1220)
T1 sequence (P34949 whole entry): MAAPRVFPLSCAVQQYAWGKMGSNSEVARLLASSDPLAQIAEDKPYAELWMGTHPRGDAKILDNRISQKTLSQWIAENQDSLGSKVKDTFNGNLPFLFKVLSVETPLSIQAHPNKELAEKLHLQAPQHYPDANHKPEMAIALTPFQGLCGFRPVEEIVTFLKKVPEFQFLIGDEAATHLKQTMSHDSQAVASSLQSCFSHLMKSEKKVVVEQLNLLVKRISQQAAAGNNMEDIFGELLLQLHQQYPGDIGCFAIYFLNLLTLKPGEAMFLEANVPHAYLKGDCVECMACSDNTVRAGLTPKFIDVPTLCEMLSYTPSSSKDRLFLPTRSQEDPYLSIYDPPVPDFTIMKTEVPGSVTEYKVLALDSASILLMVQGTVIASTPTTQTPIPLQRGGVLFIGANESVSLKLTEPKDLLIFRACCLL

[2] = target: DNA dC->dU-editing enzyme APOBEC-3G (Homo sapiens, UniProt Q9HC16); format: functional;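 also: Dose-response counterscreen measuring inhibition of APOBEC3G DNA deaminase activity, run while confirming APOBEC3A inhibitors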
[3] = target: FAD-linked sulfhydryl oxidase ALR (Homo sapiens, UniProt P55789); test: inhibitors of human ALR sulfhydryl oxidase, dose response, biochemical, H2O2 detection, luminescence, cherry-pick (AID 493248)
[4] = target: DNA dC->dU-editing enzyme APOBEC-3A (Homo sapiens, UniProt P31941); test: Dose Response confirmation of small molecule APOBEC3A DNA Deaminase Inhibitors via a fluorescence-based single-stranded DNA deaminase assay. [Related pubchem assays (depositor defined):AID493011, AID493024]; format: functional
[5] = target: T2, Tyrosyl-DNA phosphodiesterase 2 (Homo sapiens, UniProt O95551); test: human TDP2 enzyme inhibitors, dose response, biochemical, epi absorbance, IC50 (AID 743297)
T2 sequence (O95551 whole entry): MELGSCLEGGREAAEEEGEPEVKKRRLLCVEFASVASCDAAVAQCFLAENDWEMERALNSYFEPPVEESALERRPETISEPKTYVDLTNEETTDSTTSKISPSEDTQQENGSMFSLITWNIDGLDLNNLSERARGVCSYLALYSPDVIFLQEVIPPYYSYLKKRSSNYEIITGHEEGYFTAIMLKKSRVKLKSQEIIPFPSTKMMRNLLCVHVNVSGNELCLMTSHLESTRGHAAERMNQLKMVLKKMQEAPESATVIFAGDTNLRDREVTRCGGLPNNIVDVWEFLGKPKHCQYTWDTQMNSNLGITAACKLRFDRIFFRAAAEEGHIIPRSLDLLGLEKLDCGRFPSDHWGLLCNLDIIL

[6] = target: T3, Replicative DNA helicase DnaB (Mycobacterium tuberculosis, UniProt P9WMR3); test: DnaB intein splicing inhibitors, dose response, biochemical, cell-free fluorescence (AID 449749); format: functional
T3 sequence (P9WMR3 whole entry): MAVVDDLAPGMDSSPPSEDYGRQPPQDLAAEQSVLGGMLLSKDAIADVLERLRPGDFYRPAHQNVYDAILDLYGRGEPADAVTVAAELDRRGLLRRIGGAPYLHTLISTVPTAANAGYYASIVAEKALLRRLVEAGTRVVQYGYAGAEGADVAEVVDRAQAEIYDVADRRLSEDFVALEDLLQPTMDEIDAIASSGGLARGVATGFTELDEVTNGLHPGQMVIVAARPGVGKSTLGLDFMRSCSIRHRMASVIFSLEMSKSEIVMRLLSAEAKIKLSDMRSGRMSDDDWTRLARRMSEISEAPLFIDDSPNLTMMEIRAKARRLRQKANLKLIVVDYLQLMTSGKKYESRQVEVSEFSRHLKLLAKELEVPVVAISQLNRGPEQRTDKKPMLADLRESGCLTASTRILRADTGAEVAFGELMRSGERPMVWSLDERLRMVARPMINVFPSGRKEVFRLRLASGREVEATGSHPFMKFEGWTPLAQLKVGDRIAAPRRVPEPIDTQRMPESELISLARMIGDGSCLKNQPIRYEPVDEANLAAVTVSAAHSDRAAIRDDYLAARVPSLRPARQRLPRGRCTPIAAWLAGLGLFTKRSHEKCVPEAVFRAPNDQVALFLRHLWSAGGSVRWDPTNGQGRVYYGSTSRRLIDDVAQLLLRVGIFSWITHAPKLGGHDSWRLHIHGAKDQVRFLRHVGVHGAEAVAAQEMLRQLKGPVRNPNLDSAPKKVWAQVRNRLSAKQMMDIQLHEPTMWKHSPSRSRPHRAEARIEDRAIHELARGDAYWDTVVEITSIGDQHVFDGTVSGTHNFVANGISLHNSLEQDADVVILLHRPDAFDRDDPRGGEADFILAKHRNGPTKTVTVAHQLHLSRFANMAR

Cytochrome P450 3A4 = Cytochrome P450 3A4 (Homo sapiens, UniProt P08684);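 also: CYP3A4 tested as one member of a cytochrome P450 panel screen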
Protein RecA = target: T4, Protein RecA (Mycobacterium tuberculosis, UniProt P9WHJ3); test: Fluorescence Cell-Free Homogeneous Dose Retest to Identify Inhibitors of RecA-Intein Splicing Activity. [Related pubchem assays (depositor defined):AID2097, AID2223, AID489010, AID492950]; format: functional
T4 sequence (P9WHJ3 whole entry): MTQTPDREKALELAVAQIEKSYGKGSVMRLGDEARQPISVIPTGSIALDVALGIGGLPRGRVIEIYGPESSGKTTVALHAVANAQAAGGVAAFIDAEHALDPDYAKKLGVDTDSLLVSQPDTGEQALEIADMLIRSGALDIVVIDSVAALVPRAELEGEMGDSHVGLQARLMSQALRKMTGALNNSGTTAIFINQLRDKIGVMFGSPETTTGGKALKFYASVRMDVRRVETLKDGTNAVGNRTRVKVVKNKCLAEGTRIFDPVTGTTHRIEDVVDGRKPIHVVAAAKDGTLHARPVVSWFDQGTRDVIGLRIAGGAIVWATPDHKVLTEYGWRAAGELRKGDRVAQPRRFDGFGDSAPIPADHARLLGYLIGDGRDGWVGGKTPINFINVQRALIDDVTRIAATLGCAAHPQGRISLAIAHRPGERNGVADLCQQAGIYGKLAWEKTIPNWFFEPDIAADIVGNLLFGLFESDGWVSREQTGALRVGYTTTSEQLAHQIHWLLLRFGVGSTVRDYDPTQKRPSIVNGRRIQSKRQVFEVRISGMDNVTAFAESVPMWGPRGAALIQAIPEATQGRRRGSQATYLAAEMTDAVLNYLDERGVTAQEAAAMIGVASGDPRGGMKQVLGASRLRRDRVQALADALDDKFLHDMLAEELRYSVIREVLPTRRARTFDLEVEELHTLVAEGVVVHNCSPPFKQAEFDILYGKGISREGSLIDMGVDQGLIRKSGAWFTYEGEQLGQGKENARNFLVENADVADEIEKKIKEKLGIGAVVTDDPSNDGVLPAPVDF

Cytochrome P450 2C9 = Cytochrome P450 2C9 (Homo sapiens, UniProt P11712)
Cytochrome P450 2C19 = Cytochrome P450 2C19 (Homo sapiens, UniProt P33261); test: Cytochrome panel assay with activity outcomes. Panel member name: p450-cyp2c19 Compounds with AC50 equal or less than 10 uM are considered active; format: functional; settings: read-out: AC50
Paired box protein Pax-8 = Paired box protein Pax-8 (Homo sapiens, UniProt Q06710); test: inhibitors of PAX8-driven TPO luciferase reporter, dose response, RMG-I cells, cherry-pick (AID 687027); format: functional, cell-based;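 also: luciferase reporter driven by Pax8 target thyroperoxidase promoter measured by SteadyGlo luminescence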
[7] = cytotoxicity in OVCAR8 ovarian cancer cells, dose response, PAX8 project, cell-based, plate reader, dry powder samples (AID 743197); format: functional; settings: OVCAR-8
[8] = target: T5, Histone-lysine N-methyltransferase NSD2 (Homo sapiens, UniProt O96028); format: biochemical
T5 sequence (O96028 whole entry): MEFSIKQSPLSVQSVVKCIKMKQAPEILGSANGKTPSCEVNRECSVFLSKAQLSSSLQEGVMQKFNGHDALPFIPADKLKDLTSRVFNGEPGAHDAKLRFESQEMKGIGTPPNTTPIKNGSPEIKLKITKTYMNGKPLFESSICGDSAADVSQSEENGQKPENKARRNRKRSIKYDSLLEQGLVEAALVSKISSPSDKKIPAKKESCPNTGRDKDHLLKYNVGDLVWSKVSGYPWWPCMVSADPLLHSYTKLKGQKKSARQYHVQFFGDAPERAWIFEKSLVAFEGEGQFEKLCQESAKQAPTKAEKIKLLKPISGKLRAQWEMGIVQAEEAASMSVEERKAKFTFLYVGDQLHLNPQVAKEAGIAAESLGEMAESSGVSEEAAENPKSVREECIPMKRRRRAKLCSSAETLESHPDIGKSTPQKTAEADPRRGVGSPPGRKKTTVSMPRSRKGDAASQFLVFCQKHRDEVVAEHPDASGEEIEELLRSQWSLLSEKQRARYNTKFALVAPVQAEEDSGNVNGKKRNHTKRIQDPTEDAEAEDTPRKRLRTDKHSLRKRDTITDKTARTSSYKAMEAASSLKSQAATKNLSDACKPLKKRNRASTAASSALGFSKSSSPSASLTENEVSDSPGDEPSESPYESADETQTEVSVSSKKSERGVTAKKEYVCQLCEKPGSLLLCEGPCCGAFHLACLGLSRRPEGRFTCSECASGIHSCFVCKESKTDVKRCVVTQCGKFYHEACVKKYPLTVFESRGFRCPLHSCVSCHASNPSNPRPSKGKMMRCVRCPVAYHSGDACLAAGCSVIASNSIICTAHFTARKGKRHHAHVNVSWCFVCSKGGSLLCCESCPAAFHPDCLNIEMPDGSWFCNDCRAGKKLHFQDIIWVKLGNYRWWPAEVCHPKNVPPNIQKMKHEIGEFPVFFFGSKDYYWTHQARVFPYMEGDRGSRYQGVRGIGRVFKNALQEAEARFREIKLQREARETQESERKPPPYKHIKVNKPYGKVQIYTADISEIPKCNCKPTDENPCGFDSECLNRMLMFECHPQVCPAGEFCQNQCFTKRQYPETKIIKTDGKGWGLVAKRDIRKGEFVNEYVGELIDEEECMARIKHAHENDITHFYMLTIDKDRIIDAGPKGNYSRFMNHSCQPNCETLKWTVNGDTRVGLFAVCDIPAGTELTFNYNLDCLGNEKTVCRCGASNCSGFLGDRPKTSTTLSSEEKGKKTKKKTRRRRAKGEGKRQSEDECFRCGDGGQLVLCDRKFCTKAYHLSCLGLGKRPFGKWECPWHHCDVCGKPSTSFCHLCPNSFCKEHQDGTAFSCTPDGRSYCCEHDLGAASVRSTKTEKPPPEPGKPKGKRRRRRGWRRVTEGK

[9] = target: T6, Polyadenylate-binding protein 1 (Homo sapiens, UniProt P11940); test: PABP1 MLLE–PAM2 binding inhibitor potency, dose response, biochemical, fluorescence polarization, FITC-PAM2 peptide (AID 602259); format: functional; settings: read-out: IC50_Mean
[10] = target: T6, Polyadenylate-binding protein 1; test: PABP1 MLLE–PAM2 interaction inhibitors, dose response, miRNA deadenylation inhibitor project, biochemical, fluorescence polarization, Cy5-PAM2 peptide, secondary (AID 602260); format: functional; settings: read-out: IC50_Mean
[11] = inhibitors of intracellular T. cruzi replication, confirmation, NIH3T3 host cells, beta-gal luminescence (AID 2044); format: functional, cell-based;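 also: intracellular parasites grown in NIH/3T3 mouse fibroblasts as host cells; luminescent beta-galactosidase reporter signal from transgenic T. cruzi replicating inside host cells; inhibitors lower the luminescence signal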
[12] = cytotoxicity toward NIH3T3 fibroblasts, dose response, counter-screen, cell-based, ATP luminescence, mouse fibroblasts (AID 2010); format: functional;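 also: cells exposed to compound for about 90 hours before reading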
Cytochrome P450 2D6 = Cytochrome P450 2D6 (Homo sapiens, UniProt P10635);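 also: CYP2D6 member of a cytochrome P450 panel assay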
Chain of Cytochrome P450 2D6 (P10635 whole entry): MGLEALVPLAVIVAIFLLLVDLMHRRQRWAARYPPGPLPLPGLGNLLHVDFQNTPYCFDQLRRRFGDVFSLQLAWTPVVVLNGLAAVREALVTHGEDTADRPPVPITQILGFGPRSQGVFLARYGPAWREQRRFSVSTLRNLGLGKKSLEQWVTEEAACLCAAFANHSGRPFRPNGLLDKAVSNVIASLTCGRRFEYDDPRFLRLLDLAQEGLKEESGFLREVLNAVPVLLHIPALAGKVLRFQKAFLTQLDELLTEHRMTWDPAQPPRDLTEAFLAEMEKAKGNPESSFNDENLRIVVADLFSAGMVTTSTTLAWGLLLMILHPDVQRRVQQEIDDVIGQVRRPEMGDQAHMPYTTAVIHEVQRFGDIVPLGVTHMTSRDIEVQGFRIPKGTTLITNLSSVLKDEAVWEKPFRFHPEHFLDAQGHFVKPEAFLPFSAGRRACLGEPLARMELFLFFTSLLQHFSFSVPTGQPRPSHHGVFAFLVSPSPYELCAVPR

Chain of DNA dC->dU-editing enzyme APOBEC-3A (P31941 whole entry): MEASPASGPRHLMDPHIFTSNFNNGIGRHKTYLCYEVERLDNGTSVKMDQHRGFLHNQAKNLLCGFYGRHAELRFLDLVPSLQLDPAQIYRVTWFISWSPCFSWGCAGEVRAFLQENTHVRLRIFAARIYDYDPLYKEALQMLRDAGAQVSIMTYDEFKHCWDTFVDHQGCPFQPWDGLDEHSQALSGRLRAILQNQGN
Chain of DNA dC->dU-editing enzyme APOBEC-3G (Q9HC16 whole entry): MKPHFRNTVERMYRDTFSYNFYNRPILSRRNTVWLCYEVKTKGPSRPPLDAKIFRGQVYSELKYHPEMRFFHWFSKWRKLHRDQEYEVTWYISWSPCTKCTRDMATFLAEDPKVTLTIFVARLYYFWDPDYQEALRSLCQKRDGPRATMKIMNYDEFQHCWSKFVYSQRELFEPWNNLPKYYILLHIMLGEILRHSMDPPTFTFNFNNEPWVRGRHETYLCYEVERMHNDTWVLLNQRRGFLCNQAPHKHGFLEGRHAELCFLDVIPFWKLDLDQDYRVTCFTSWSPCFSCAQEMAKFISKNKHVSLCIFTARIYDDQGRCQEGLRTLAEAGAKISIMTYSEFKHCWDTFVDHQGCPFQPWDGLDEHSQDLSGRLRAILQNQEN
Chain of Cytochrome P450 2C9 (P11712 whole entry): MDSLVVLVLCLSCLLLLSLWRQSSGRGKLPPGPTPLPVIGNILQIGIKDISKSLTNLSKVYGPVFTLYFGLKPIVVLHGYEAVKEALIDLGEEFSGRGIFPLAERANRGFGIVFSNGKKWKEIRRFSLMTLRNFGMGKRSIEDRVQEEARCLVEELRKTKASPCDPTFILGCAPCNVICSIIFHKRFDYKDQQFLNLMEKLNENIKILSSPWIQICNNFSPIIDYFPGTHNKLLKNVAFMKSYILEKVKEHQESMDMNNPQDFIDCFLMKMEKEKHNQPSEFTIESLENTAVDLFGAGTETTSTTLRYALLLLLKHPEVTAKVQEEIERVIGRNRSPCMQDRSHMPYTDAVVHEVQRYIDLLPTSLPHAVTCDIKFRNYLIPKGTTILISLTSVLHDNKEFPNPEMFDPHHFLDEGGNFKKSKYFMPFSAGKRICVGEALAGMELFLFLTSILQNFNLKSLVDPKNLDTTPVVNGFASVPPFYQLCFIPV
Chain of Cytochrome P450 3A4 (P08684 whole entry): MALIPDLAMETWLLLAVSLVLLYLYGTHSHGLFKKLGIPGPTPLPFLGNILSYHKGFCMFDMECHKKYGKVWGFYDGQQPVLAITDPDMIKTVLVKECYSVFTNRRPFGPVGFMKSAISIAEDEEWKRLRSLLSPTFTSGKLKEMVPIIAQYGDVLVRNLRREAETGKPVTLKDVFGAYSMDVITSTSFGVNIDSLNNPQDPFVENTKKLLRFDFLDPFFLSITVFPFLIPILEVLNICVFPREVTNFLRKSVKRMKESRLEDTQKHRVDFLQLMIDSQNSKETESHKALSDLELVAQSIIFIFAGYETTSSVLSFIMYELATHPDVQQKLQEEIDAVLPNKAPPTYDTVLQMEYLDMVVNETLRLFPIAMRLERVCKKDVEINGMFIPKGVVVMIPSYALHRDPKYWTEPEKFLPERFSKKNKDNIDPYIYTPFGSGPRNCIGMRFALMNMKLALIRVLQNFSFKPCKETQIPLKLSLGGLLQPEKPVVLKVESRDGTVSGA
T6 sequence (P11940 whole entry): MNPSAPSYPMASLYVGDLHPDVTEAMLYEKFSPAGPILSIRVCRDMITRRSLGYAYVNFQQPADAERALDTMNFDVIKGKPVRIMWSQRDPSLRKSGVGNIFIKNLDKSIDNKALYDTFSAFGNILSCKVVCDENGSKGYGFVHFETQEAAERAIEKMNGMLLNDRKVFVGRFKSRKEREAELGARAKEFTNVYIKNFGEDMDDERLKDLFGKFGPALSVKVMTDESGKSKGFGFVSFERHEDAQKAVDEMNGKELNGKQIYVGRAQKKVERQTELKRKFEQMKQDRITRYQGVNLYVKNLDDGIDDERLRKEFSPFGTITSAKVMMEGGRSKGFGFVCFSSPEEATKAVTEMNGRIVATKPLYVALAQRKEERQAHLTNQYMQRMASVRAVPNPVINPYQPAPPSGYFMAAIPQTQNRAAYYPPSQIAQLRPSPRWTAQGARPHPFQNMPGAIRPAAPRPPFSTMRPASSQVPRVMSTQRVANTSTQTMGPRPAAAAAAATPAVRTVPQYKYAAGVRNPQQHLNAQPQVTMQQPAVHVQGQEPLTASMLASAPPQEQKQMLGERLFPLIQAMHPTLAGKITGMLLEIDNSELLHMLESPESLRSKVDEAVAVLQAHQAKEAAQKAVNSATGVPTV
Chain of Paired box protein Pax-8 (Q06710 whole entry): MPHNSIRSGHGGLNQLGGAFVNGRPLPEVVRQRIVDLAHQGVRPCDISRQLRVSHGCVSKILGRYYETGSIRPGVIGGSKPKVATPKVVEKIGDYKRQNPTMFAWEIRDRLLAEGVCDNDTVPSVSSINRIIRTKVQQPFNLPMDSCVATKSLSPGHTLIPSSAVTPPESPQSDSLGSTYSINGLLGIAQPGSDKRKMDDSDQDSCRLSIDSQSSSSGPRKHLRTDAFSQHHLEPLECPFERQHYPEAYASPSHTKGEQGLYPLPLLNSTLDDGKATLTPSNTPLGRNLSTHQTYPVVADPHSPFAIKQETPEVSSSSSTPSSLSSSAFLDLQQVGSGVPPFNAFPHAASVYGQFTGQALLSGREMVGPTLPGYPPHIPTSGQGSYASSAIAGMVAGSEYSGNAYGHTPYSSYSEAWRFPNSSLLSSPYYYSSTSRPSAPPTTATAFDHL
Chain of Cytochrome P450 2C19 (P33261 whole entry): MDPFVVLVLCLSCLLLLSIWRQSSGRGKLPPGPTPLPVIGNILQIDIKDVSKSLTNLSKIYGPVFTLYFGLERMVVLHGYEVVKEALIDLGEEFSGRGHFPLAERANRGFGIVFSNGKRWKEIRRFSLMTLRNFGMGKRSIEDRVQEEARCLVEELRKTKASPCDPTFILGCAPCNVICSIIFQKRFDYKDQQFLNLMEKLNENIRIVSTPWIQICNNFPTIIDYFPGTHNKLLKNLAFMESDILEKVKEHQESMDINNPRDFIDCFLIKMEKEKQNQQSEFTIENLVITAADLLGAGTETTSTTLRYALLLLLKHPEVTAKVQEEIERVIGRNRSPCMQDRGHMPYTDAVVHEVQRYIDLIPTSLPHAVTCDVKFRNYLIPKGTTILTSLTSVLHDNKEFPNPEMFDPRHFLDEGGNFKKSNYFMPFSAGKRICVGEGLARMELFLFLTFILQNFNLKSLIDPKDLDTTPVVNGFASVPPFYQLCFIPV
Chain of FAD-linked sulfhydryl oxidase ALR (P55789 whole entry): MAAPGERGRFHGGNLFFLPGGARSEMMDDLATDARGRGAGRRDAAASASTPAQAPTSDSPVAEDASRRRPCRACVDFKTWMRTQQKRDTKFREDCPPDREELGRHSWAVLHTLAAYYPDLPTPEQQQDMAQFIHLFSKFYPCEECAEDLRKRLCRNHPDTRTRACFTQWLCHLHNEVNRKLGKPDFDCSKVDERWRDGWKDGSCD

COCC(C)N1C(=O)Cc2c1nc(N)c1c(N)nc(N3CCN(c4ccccc4F)CC3)c(C#N)c21 (stereo unspecified)
IC50 [1]: > 50 µM (not active)

CC(=O)Nc1cc(-c2ccccc2)ccc1O
IC50 [2]: 16.5 µM (active) | AC50 [3]: 1.1 µM (active) | IC50 [4]: 7.17 µM (active)

CCOc1cc(/C=C2/C(=O)N(c3ccccc3)N=C2C)ccc1OC(=O)c1ccco1
IC50 [5]: 119 µM (inactive) | AC50 [6]: 2.68 µM (active) | AC50 (Cytochrome P450 3A4): 25.1 µM (inconclusive) | EC50 (Protein RecA): 1.64 µM (active)

CCCC[N+]12CCC(CC1)C(C(=O)c1cccs1)C2 (stereo unspecified)
AC50 (Cytochrome P450 2C9): 10 µM (inconclusive) | IC50 [2]: 2.56 µM (active) | AC50 (Cytochrome P450 2C19): 39.8 µM (inconclusive) | IC50 [4]: 2.42 µM (active)

C[C@@H]1CCCCO[C@H](CN(C)Cc2ccc(C(F)(F)F)cc2)[C@@H](C)CN([C@@H](C)CO)C(=O)c2cc(NS(=O)(=O)c3ccc(Cl)cc3)ccc2O1
AC50 (Paired box protein Pax-8): 6.82 µM (active) | AC50 [7]: 40.7 µM (active)

CC1=CC(=Nc2c(C)n(C)n(-c3ccccc3)c2=O)C=C(C)C1=O
IC50 [1]: 13.2 µM (active)

CCOCc1cnc(C)nc1NCC(=O)c1c(C)[nH]c2cc(C)ccc12
IC50 [2]: 4.04 µM (active) | IC50 [4]: 4.29 µM (active)

C=CCN(CC=C)C(=S)Nc1ccc2nsnc2c1
IC50 [5]: > 128 µM (inactive) | AC50 [8]: 15 µM (active) | IC50 [9]: > 66 µM (inactive) | IC50 [10]: > 66 µM (inactive)

CC(C)C(NC(=O)COc1ccc2ccccc2c1)C(=O)N/N=C/C=C/c1ccccc1 (stereo unspecified)
IC50 [2]: 4.97 µM (active) | IC50 [4]: 3.22 µM (active)

CN1CCC(N(C)S(=O)(=O)c2ccc(NC(=O)COc3ccc(F)cc3)cc2)CC1
EC50 [11]: 0.835 µM (active) | IC50 [2]: 3.53 µM (active) | IC50 [4]: 3.71 µM (active) | EC50 [12]: > 60 µM (not active)

O=[N+]([O-])c1cc2c(cc1/C=N/c1ccccc1)OCO2
IC50 [1]: > 50 µM (not active) | AC50 (Cytochrome P450 2C9): 10 µM (inconclusive) | AC50 (Cytochrome P450 3A4): 20 µM (inconclusive) | AC50 (Cytochrome P450 2D6): 25.1 µM (inconclusive)
